The values that follow come from article PMC6501583 (Journal of medicinal chemistry, 2019).

Data set [1] addresses rat mGlu7 (Rattus norvegicus, UniProt P35400). The class given is cell-based.
A short description of data set [2]: Predicted hepatic clearance. The class given is in vitro ADME. The conditions noted are these: for rat CLhep: Table 1, predicted hepatic clearance; for Rat CLhep: Table 2, predicted hepatic clearance.
For data set [3], the system named is mGlu1–6,8. Put plainly: Selectivity versus the other seven mGlu receptors. It is filed as cell-based.
In data set [4] the test system is mice. Put plainly: Elevated zero maze. The class given is in vivo, mouse.
Data set [5] can be described thus: 30 mg/kg. It is filed as in vivo, rat.
A short description of data set [6]: Discrete iv and po pharmacokinetics in rat. The class given is in vivo. As to conditions: plasma, 0.2 mg/kg.
Data set [7] can be described thus: Predicted hepatic clearance. It is filed as in vitro ADME.
Data set [8] in a line: Rat plasma:brain level. The conditions noted are these: rat PBL IV cassette. The class given is in vivo.
In data set [9] the test system is mice. Put plainly: Light/dark box assay. It is filed as in vivo, mouse. As to conditions: vs vehicle.
Data set [10] concerns mice. Description: Mouse marble-burying assay. It is filed as in vivo. As to conditions: vs vehicle.
The target in data set [11] is 5-HT2B receptor (Homo sapiens, UniProt P41595). Put plainly: Eurofins lead profiling panel of 68 GPCRs, ion channels, and transporters. The conditions noted are these: at 10 μM; only target of 68 above 50%. The class given is binding.
Data set [12] has as its system hippocampus (native tissues). The conditions noted are these: cited from earlier work.

Entries after “also recorded” stand apart in the source; their conditions may differ.

Sequence of rat mGlu7 (P35400 35-915): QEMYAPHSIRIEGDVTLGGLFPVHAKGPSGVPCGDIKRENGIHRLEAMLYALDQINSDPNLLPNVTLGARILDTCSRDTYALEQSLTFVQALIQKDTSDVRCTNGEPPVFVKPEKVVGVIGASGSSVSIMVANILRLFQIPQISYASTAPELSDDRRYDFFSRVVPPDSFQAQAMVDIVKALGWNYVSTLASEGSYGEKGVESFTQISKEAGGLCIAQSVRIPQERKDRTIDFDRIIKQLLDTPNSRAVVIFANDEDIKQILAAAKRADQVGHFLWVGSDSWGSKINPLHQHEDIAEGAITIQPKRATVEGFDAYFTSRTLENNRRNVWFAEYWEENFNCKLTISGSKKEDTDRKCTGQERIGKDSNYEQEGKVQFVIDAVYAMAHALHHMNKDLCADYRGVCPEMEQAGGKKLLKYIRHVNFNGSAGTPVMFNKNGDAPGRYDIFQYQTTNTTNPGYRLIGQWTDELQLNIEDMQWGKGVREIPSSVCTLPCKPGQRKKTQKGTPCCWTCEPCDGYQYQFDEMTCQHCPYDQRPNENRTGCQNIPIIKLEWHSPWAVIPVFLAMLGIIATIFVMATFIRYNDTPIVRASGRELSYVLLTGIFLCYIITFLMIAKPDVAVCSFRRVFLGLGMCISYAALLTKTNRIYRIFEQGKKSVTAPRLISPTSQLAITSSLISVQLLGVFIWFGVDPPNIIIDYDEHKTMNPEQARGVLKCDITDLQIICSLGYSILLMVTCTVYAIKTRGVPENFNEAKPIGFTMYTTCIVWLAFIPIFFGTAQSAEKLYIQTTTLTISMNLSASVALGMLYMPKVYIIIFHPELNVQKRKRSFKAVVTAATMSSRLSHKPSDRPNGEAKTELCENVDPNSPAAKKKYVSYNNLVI
Sequence of 5-HT2B receptor (P41595 whole entry): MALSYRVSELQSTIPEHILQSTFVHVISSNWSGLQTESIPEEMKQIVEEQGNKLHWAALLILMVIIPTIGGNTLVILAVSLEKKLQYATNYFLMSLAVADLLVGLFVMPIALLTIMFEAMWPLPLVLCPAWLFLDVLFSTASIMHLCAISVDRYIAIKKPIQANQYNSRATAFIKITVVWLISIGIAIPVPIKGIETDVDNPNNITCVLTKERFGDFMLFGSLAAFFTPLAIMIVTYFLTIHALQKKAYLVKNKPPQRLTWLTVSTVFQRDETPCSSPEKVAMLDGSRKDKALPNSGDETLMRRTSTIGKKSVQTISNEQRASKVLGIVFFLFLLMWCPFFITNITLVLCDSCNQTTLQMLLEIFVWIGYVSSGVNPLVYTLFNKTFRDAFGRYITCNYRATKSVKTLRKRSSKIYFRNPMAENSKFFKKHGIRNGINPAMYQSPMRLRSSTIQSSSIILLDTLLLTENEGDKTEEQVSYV

On to `COc1ccc(CNc2cc(OC(F)(F)F)ccc2-n2cncn2)cc1OC` [6a], for which, in data set [1], the “% L-AP4 min” value stood at 17 ± 3%.
Consider `COc1ccc(CCCNc2cc(OC(F)(F)F)ccc2-n2cncn2)cc1OC` [6b], for which the “rat CLhep” value in [2] was 68.1 mL/min/kg.
The same measure, in the same setting: then `COc1cc(F)c(CCCNc2cc(OC(F)(F)F)ccc2-n2cncn2)cc1OC` [6c], with 66.4 mL/min/kg; and `COc1cc(F)c(OCCNc2cc(OC(F)(F)F)ccc2-n2cncn2)cc1OC` [6d], with 66.4 mL/min/kg.
Take `COc1cc(C(=O)Nc2cc(OC(F)(F)F)ccc2-n2cncn2)ccc1OCC(F)(F)F` [7a]: in data set [1], the “mGlu7 NAM activity (in words)” value is “inactive”.
Still for that read-out and setting: under `COc1cc(C(=O)Nc2cc(OC(F)(F)F)ccc2-n2cncn2)ccc1OCC(C)(C)C` [7b] stands “inactive”.
For the compound `COc1cc(C(=O)Nc2cc(OC(F)(F)F)ccc2-n2cncn2)ccc1OCC(C)C` [7c], the “Rat CLhep” value in data set [2] is recorded as 38.4 mL/min/kg. In addition, the “mGlu7 NAM activity (in words)” value in data set [1] is recorded as “restored mGlu7 NAM activity”.
Regarding `COc1cc(C(=O)Nc2cc(OC(F)(F)F)ccc2-n2cncn2)ccc1OCC1CC1` [7d, N-(2-(1H-1,2,4-Triazol-1-yl)-5-(trifluoromethoxy)phenyl)-4-(cyclopropylmethoxy)-3-methoxybenzamide], in data set [3], the “activity versus mGlu1–6,8” value was > 10 µM. Besides, in [4] (3 mg/kg ip, vs VEH p < 0.05, 3 mg/kg), the “time spent in the open arms” value is “increased total time spent in the open arms; also recorded: increases time spent in the open arms”. Further, the “overall locomotion / distance traveled” value in data set [4] (10 mg/kg ip, 10 mg/kg) was “decrease in overall locomotion; also recorded: decreased distance traveled”. Besides, in data set [5] (at modest doses), the “predicted unbound levels (CSF concentrations) above the in vitro IC50” value is ~ 4 fold. Also, in data set [5] (rat, 30 mg/kg ip), the “[brain]tot” value was found to be 745 nM, the “[plasma]tot” value was 598 nM and the “levels in CSF” value turned out to be 1300 nM. In data set [2], the “predicted hepatic clearance, rat CLhep” value is recorded as 15.9 mL min^–1 kg^–1 and the “Rat CLhep” value was 15.9 mL/min/kg. In [6], this compound gave a clearance at 24 h of 31.5 mL/min/kg. In addition, the “predicted hepatic clearance in mouse, CLhep” value in [7] is reported as 44.0 mL min^–1 kg^–1. Besides, the “[brain]tot” value in data set [8] is 375 nM. Besides, in data set [9] (3 mg/kg ip), the “total time spent in the light side of the chamber” value is recorded as “increased total time spent in the light side of the chamber”. Besides, the “number of marbles buried” value in [10] (3 mg/kg, 3 mg/kg) was “decreased the number of marbles buried; also recorded: reduced the number of marbles buried”. In [11], the “compound activity at 5-HT2B receptor” value is “greater than 50%”.
In the case of `COc1ccc(C(=O)Nc2cc(OC(F)(F)F)ccc2-n2cncn2)cc1OC` [compound 5], the “blocking high-frequency-stimulated LTP in the hippocampus” value in data set [12] is reported as “robust efficacy”.
With `CNCCC(Oc1ccc(C(F)(F)F)cc1)c1ccccc1` (centres unmarked) [fluoxetine, reference compound], the “total time spent in the light side of the chamber” value in data set [9] (15 mg/kg ip) is reported as “increased total time spent in the light side of the chamber”. Further, the “number of marbles buried” value in data set [10] (fluoxetine 15 mg/kg) is given as “decreased the number of marbles buried”.
